Measured values published in patent US9987296B2, “Compositions including anthocyanin or anthocyanidin for the prevention or treatment of Articular cartilage-associated conditions” (priority 2008, dated 2018).
“Also recorded” adds a separate entry of the source.

What was measured:
Assay type in all cases: cell-based
IGF-1 [1] = experiment: Real time RT-PCR for IGF-1 in human chondrocytes; settings: for IGF-1 gene expression compared to IL-1 alone: 5 or 50 ug/mL with IL-1, 50 ug/mL alone (FIGS. 3, 4)
Procedure: (§1) Chondrocytes were prepared by the enzymatic digestion of knee cartilage, as previously described. (Ahmed S et al., J Nutr 2005 135:20962102). Chondrocytes were plated (1×10^6 cells/mL) in 35 mm culture dishes (BD, Mountain View, Calif.) and cultured in DMEM:F12 (Mediatech, Herndon, Va.) supplemented with 10% FCS and 1% Penn:Strep for 72 hrs at 37° C. and 5% CO2 in a tissue culture incubator. Chondrocytes were serum starved overnight and then exposed to either kuromanin or cyanidin chloride (5 or 50 ug/mL), progrado (2 or 10 ug/mL) alone or in combination in fresh serum-free medium for 1 hr prior to the addition of IL-β.
Total cytoplasmic RNA was prepared from primary cultures of human chondrocytes using a commercially available kit according to the instructions of the manufacturer (Qiagen, Valencia, Calif.). Real time quantitative RT-PCR with internal fluorescent hybridization probes was performed as previously described (Ahmed S et al., ECAM 2005 2:301-8) and the IGF-1 gene expression was quantified using a commercially available Gene Expression Assay kit (Applied Biosystems, CA). Expression of IGF-1 mRNA was normalized to […] mRNA expression. and the results were expressed as fold induction relative to controls.

[2] = test system: human osteoarthritic cartilage explants; experiment: Matrix synthesis (35S uptake) in human osteoarthritic cartilage explants
Procedure: Bovine cartilage explants (full thickness, 6 mm in diameter) were harvested from fresh femoral condyles. Human osteochondral plugs were harvested using 6 mm osteochondral grafting donor tool (Arthrez 1981-06S, Naples, Fla.) from femoral condyles retrieved from total knee arthroplasty surgery that had been stored in DMEM at 20 degrees C. for less than 24 hours. Full-thickness cartilage explants were cut from the subchondral bone. Each of the 6 mm cartilage disks were divided into 4 equal quadrants. Each quadrant was placed in a different experimental group. This allowed for a paired comparison and controlled for differences in grade of arthritis, thickness of cartilage, cell density, etc. The explants were washed 4-5 times with DMEM with 10% calf serum and were allowed to stabilize for 24 hours in a tissue culture incubator. Explants were then serum starved (0.1% calf serum) for 24 hours prior to commencement of cyanidin chloride treatment.
3 mL fresh media with 20 uCi/mL of ^35S-labeled sodium sulfate (NEX0414 Perkin Elmer, Boston, Mass.) (DMEM with 10% CS) was added to each of the explants along with 30 uL of 50 mM stock cyanidin chloride (MW 322.7 g/mole) solution (diluted in DMSO) (Chromadex Inc., Irvine, Calif.) to give the final cyanidin chloride concentration of (200 or 500 uM) in culture. Explants were subjected to cyanidin chloride treatment for 48 hours.
Radioactive media was aspirated after 48 hours and explants were washed in ice-cold 1×PBS for 10 minutes×3. Each cartilage explant quadrant was blotted dry and was placed in 500 uL of 2 mg/mL Proteinase K (Fisher Scientific, Fair Lawn, N.J.) in TE Buffer solution (10 mM Tris, 1 mM EDTA) and was allowed to rotate at 57 degrees C. for 24 hours in a hybridization oven until completely dissolved. Quantification of ^35S-labeled proteoglycans complexed to alcian blue by rapid filtration in multiwall plates was adopted and modified from Masuda et al Anal. Biochem 1994; 217:167-75. 75 uL of dilution buffer (50 mM Sodium Acetate pH^− 5.8. 0.5% Triton X-100) was added to each well of a 96 well plate (Millipore Multiscreen 96-well filtration system, Millipore, Billerica, Mass.) 25 uL of each digested cartilage explant sample was then loaded followed by 150 uL of 0.2% alcian blue solution (Alcian Blue 8GX electrophoresis grade, Sigma-Aldrich Inc., St. Louis Mo.) and was allowed to rotate for 1 hour at room temperature. The 96-well plate was then placed over a vacuum-manifold to aspirate the contents of the wells through the screen. The 3×200 uL vacuum washes with wash buffer (50 mM sodium acetate pI-I 5.8, 100 mM sodium sulfate, 50 mM MgCl2) were then performed. The 96-well filtration plate was then completely dried at 57 degrees C. for 5 minutes in a hybridization oven and was exposed to storage phosphor screen for 24 hours (Packard Instrument Company Inc., Meriden. Conn.). Phosphorimaging with Cyclone model A431200 (Packard Instrument Company Inc. Meriden, Conn.) was performed to quantify ^35S uptake by proteoglycans. ^35S uptake by proteoglycans in cartilage explants was normalized to DNA by Quant-iT ds DNA Assay Kit (Invitrogen Inc., Carlsbad Calif.).
Reported clinical experiments indicate that 10% dextrose injected in the joint can have a therapeutic effect on osteoarthritis. To test this effect, human osteoarthritic cartilage explants (Grade II) were treated with glucose at physiologic (0.45%) or were treated with supraphysiologic (2.5% and 5%) concentrations with 500 uM cyanidin chloride.

IGF-1 [3] = experiment: IGF-1 production by ELISA, cultured human chondrocytes; settings: for IGF-1 production: cultured chondrocytes treated with compound, presence and absence of IL-1; for IGF-1 production compared to IL-1 alone: human chondrocytes in culture, 5 or 50 ug/mL (FIGS. 5, 6)
Procedure: as §1
Human IGF-1 label in chondrocytes culture or cartilage explant media was quantified using a commercially available Human IGF-1 ELISA kit (R& D Systems) per manufacturer's directions.

[4] = test system: Human articular chondrocytes; experiment: MTT assay; settings: human articular chondrocytes in culture, 96 hours
Procedure: Chondrocytes were isolated from non-arthritic regions of adult human articular cartilage (N=3 donors) and expanded in tissue culture flasks in DMEM supplemented with 10% calf serum.
The following compounds were provided by Chromadex, Inc. and tested from 1 uM to 500 uM:
Human articular chondrocytes were seeded in 96-well culture trays at a density of 5000 cells/well and incubated with the selected concentration of the anthocyanin for 4 days. At the end of the 4 day period, fresh MTT (3(4,5-Dimethylthiazol-2-yl)-2,5-diphenyltetrazolium bromide) was made in PBS and filter sterilized. MTT (25 ul per well) was added to the cell culture and incubated for 5 hours in the CO2 incubator at 37° C. Yellow MIT is reduced to purple formazan in living cells. The supernatant from each well was removed, and 200 Ill of DMSO was added. A multi-channel pipette was used to dissolve crystals. The microplate was placed back into the incubator at 37° C. for 5 min. Formazan levels in each well were read using a spectrophotometer at 550 nm wavelength.

| Compound | IGF-1 gene expression (IGF-1 [1]; 50 ug/mL dose, duplicate, called anomalous) | IGF-1 gene expression compared to IL-1 alone (IGF-1 [1]) | synergy of cyanidin and glucose on matrix synthesis ([2]; cyanidin 500 uM combined with glucose) | matrix synthesis (35S uptake) ([2]; human OA Grade II explants, 500 uM at 0.45% glucose) | matrix synthesis (35S uptake) ([2]; human OA grade II-III explants, 500 uM) | IGF-1 production (media levels) (IGF-1 [3]; IL-1 with high dose 50 ug/mL) | IGF-1 production (media levels) (IGF-1 [3]; IL-1 with low dose 5 ug/mL) | IGF-1 production (IGF-1 [3]) | IGF-1 production (media levels) (IGF-1 [3]; high dose (50 ug/mL) alone) | IGF-1 production compared to IL-1 alone (IGF-1 [3]) | non-toxic concentration [4] | IGF-1 gene expression (IGF-1 [1]; IL-1 with compound at 5 or 50 ug/mL) | matrix synthesis (35S uptake) ([2]; glucose 0.45% (low, physiologic)) | matrix synthesis (35S uptake) ([2]; supraphysiologic glucose (2.5% and 5%)) |
| --- | --- | --- | --- | --- | --- | --- | --- | --- | --- | --- | --- | --- | --- | --- |
| Oc1cc(O)c2cc(O)c(-c3ccc(O)c(O)c3)[o+]c2c1 [Cyanidin chloride] | elevated above control | increased IGF-1 gene expression more than kuromanin; also recorded: greater compared to IL-1 alone when treated with cyanidin alone or in combination with IL-1 | did not have significant synergistic effect | no effect on matrix synthesis | no effect on human OA explants; also recorded: did not increase matrix synthesis in human OA tissue | no restoration of media IFG-1 levels | no restoration of media IFG-1 levels | Reduced production of IGF-1 | reduced IGF-1 production from control values | greater than IL-1 alone when treated with cyanidin alone at high levels and at low levels in combination with IL-1 | 100 µM | – | – | – |
| OC[C@H]1O[C@@H](Oc2cc3c(O)cc(O)cc3[o+]c2-c2ccc(O)c(O)c2)[C@H](O)[C@@H](O)[C@@H]1O.[Cl-] [Kuromanin chloride] | – | greater compared to IL-1 alone when treated with kuromanin at high dose | – | – | – | no effect over IL-1 | restoration of IGF-1 production | Reduced production of IGF-1 | reduced IGF-1 protein levels in the media to a similar level as to that seen with IL-1 | greater than IL-1 alone when treated with kuromanin at high levels and at low levels in combination with 1L-1 | 100 µM | no further changing in this pattern | – | – |
| O=C[C@H](O)[C@@H](O)[C@H](O)[C@H](O)CO [glucose] | – | – | – | – | – | – | – | – | – | – | – | – | stimulate matrix synthesis more than higher concentrations of glucose; also recorded: beneficial effect | reduced matrix synthesis; also recorded: suppressed matrix synthesis |
